Counter-ions that a name gives are not always drawn. Like-named read-outs stand apart in the source and are kept apart here.
Legend:
[1] = test system: IL-4 stimulated expression of CD23 in human Ramos B cells (JAK-1 and JAK-3); experiment: Assay for Ramos B-Cell Line Stimulated with IL-4 (CD23 upregulation, FACS); format: cell-based; details: read-out: IC50, Example 41
Summary of the method: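 Human Ramos B cells in RPMI with 5% serum were pre-incubated with compound or DMSO for 1 h at 37 °C, then stimulated with IL-4 at a final 50 units/mL for 20-24 h. CD23 upregulation was measured by anti-CD23-PE staining and flow cytometry, and IC50 values were calculated.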

[2] = test system: up-regulation of ICAM-1 (CD54) by IFNγ in U937 human monocytic cells; experiment: U937 IFNγ ICAM1 FACS Assay; format: cell-based; details: ICAM-1 expression by FACS, read-out: IC50, Example 44
Summary of the method: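 U937 cells in 10% FCS RPMI were preincubated 30 min at 37 °C with an 8-point, 3-fold compound dilution series in duplicate, then stimulated with IFNγ for 18–24 h. Surface ICAM-1 was stained with APC anti-ICAM-1 and read by flow cytometry as geometric mean on live-gated cells. EC50 was derived.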

[3] = Homo sapiens, Ramos, Ramos B-cell line stimulated with IL-4, CD23 expression by FACS
[4] = Homo sapiens, U-937, U937 cells stimulated with IFNγ
[5] = Ramos B cells stimulated with IL-4, CD23 expression by FACS
[6] = U937 cells stimulated with IFNγ

IC50 [1, 3] [nM]	IC50 [2, 4] [nM]	IC50 [1, 5] [nM]	IC50 [2, 6] [nM]	IC50 ([1]; Homo sapiens, Ramos, Ramos B cells stimulated with IL-4, CD23 expression by FACS) [nM]	Structure (SMILES)
375	3260				Cc1ccc(Nc2ncc(C)c(Nc3ccc(OCC(=O)N(C)C)c(F)c3)n2)cc1S(N)(=O)=O [Compound I-139, N2-(3-Aminosulfonyl-4-methylphenyl)-N4-(4-dimethylaminocarbonylmethoxy-3-fluorophenyl)-5-methyl-2,4-pyrimidinediamine]
135	1010				CNC(=O)OCCc1ccc(Nc2nc(Nc3cccc(S(N)(=O)=O)c3)ncc2F)cc1 [III-60, N2-(3-Aminosulfonylphenyl)-5-fluoro-N4-{4-[2-(methylaminocarbonyloxy)ethyl]phenyl}-2,4-pyrimidinediamine]
		230	2430		NS(=O)(=O)c1cccc(Nc2ncc(F)c(Nc3ccc(CN4CCOCC4)cc3)n2)c1 [III-103, N2-(3-Aminosulfonylphenyl)-5-fluoro-N4-(4-N-morpholinomethylenephenyl)-2,4-pyrimidinediamine]
		197	6850		Cc1ccc(Nc2ncc(F)c(Nc3cnc4c(c3)OC(C)(C)C(=O)N4CC#N)n2)cc1S(N)(=O)=O [Compound V-14, N2-(3-Aminosulfonyl-4-methylphenyl)-N4-[2,2-dimethyl-3-oxo-4-cyanomethyl-5-pyrid[1,4]oxazin-7-yl]-5-fluoro-2,4-pyrimidinediamine]
		53.3	14500		COc1ccc(Nc2nc(Nc3cccc(S(=O)(=O)NN4CCC(C)CC4)c3)ncc2F)cc1Cl [VI-9, N4-(3-Chloro-4-methoxyphenyl)-5-fluoro-N2-[3-(4-methylpipendin-1-yl)aminosulfonylphenyl]-2,4-pyrimidinediamine]
	1380			348	Cc1cc2ccc(CNc3nc(Nc4cccc(S(N)(=O)=O)c4)ncc3F)cc2[nH]1 [Compound X-3]
297	1380				C=CCNC(=O)COc1ccc(Nc2nc(Nc3cccc(S(N)(=O)=O)c3)ncc2F)cc1 [Compound I-158, N4-(4-Allylaminocarbonylmethoxyphenyl)-N2-(3-aminosulfonylphenyl)-5-fluoro-2,4-pyrimidinediamine]
65.7	10500				CNC(=O)COc1ccc(Nc2nc(Nc3cccc(S(N)(=O)=O)c3)ncc2C)cc1Cl [Compound I-150, N2-(3-Aminosulfonylphenyl)-N4-(3-chloro-4-methylaminocarbonylmethoxyphenyl)-5-methyl-2,4-pyrimidinediamine]
23.5	118				Cc1ccc(Nc2ncc(F)c(Nc3ccc(OCc4cccnc4)cc3)n2)cc1S(N)(=O)=O [Compound I-178, N2-(3-Aminosulfonyl-4-methylphenyl)-5-fluoro-N4-[4-(3-pyridylmethoxy)phenyl]-2,4-pyrimidinediamine]
305	9940				Cc1cnc(Nc2cccc(S(N)(=O)=O)c2)nc1Nc1ccc(OCC(N)=O)cc1 [Compound I-109, N4-(4-Aminocarbonylmethoxyphenyl)-N2-(3-aminosulfonylphenyl)-5-methyl-2,4-pyrimidinediamine]
		174	1190		NS(=O)(=O)c1cccc(Nc2ncc(F)c(Nc3ccc(Cc4ccncc4)cc3)n2)c1 [III-129, N2-(3-Aminosulfonylphenyl)-5-fluoro-N4-[4-(4-pyridylmethyl)phenyl]-2,4-pyrimidinediamine Methanesulfonic Acid Salt]
152	68700				N#CCOc1ccc(Nc2nc(Nc3ccc(S(N)(=O)=O)cc3)ncc2F)cc1-c1ccn(CC#N)n1 [Compound I-52, N2-(4-Aminosulfonylphenyl)-N4-[4-cyanomethoxy-3-(1-cyanomethylpyrazol-3-yl)phenyl]-5-fluoro-2,4-pyrimidinediamine]
225	1080				Cc1cc(COc2ccc(Nc3nc(Nc4cccc(S(=O)(=O)NCc5oc(=O)oc5C)c4)ncc3F)cc2)no1 [Compound I-247, N2-{3-[(N-5-Methyl-1,3-dioxolene-2-one-4-yl)methylene]aminosulfonylphenyl}-5-fluoro-N4-[4-(5-methylisoxazol-3-yl)methyleneoxyphenyl]-2,4-pyrimidinediamine]
		151	2420		CNS(=O)(=O)c1cc(Nc2ncc(F)c(Nc3cccc(-c4cnco4)c3)n2)ccc1C [IV-4, 5-Fluoro-N2-[3-(N-methylaminosulfony)-4-methylphenyl]-N4-[3-(1,3-oxazol-5-yl)phenyl]-2,4-pyrimidinediamine]
45.4	444				N#CCCc1ccc(Nc2nc(Nc3cccc(S(N)(=O)=O)c3)ncc2F)cc1Cl [III-22, N2-(3-Aminosulfonylphenyl)-N4-[3-chloro-4-(2-cyanoethyl)phenyl]-5-fluoro-2,4-pyrimidinediamine]
		321	5340		Cc1ccc(Nc2ncc(F)c(Nc3ccc(CN4CCS(=O)(=O)CC4)cc3)n2)cc1S(N)(=O)=O [III-111, N2-(3-Aminosulfonyl-4-methylphenyl)-5-fluoro-N4-{4-[(1,1-dioxothiomorpholin-4-yl-)methyl]phenyl}-2,4-pyrimidinediamine]
36.6	544				N#CCCc1ccc(Nc2nc(Nc3cccc(S(N)(=O)=O)c3)ncc2F)cc1F [III-18, N2-(3-Aminosulfonylphenyl)-N4-[4-(2-cyanoethyl)-3-fluorophenyl]-5-fluoro-2,4-pyrimidinediamine]
		42.8	492		Cc1noc(CCc2ccc(Nc3nc(Nc4cccc(S(N)(=O)=O)c4)ncc3F)cc2)n1 [III-106, N2-(3-Aminosulfonylphenyl)-5-fluoro-N4-[4-(3-methyl-1,2,4-oxadiazol-5-yl)ethylenephenyl]-2,4-pyrimidinediamine]
263	32200				Cc1ccc(Nc2ncc(F)c(Nc3ccc(OCC#N)c(CO)c3)n2)cc1S(N)(=O)=O [Compound I-51, N2-(3-Aminosulfonyl-4-methylphenyl)-N4-(4-cyanomethoxy-3-hydroxymethylphenyl)-5-fluoro-2,4-pyrimidinediamine]
43	3330				Cc1cc(Nc2nc(Nc3cccc(S(N)(=O)=O)c3)ncc2F)ccc1CCC#N [III-20, N2-(3-Aminosulfonylphenyl)-N4-[4-(2-cyanoethyl)-3-methylphenyl]-5-fluoro-2,4-pyrimidinediamine]

From patent US11827628B2, “Compositions and methods for inhibition of the JAK pathway” (Rigel Pharmaceuticals, Inc., priority 2005, dated 2023)
